Measured values published in ChEMBL document CHEMBL2311518 (J Med Chem, 2013).
Where “and” joins values, the source holds several entries; their conditions need not be identical. Equal entries are not always repeated. Calls of active or inactive are those of the source. No cut-off for these calls is given here.

How the values were obtained:
[1] = biological target: Neuronal acetylcholine receptor; alpha4/beta2 (Rattus norvegicus, UniProt P09483+P12390); experiment: biochemical
Description: Displacement of [3H]epibatidine from rat recombinant alpha4beta2 nAChR expressed in HEK293 cells after 4 hrs by scintillation counting analysis

[2] = biological target: T1, Neuronal acetylcholine receptor; alpha3/beta4 (Rattus norvegicus, UniProt P04757+P12392); experiment: biochemical
T1 sequence (P04757 whole entry): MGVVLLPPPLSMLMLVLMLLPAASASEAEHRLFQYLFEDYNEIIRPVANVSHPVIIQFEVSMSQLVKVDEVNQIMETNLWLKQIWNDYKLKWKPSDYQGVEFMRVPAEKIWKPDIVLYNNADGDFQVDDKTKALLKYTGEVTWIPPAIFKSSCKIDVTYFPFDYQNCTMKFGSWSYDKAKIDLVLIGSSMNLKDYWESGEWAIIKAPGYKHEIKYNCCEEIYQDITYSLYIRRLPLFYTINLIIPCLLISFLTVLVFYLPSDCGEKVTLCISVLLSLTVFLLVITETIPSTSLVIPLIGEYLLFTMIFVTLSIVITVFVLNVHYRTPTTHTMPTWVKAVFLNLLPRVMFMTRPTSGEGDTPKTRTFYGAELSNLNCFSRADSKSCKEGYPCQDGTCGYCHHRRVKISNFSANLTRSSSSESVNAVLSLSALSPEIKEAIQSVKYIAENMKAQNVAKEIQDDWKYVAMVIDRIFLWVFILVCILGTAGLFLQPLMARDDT
T1 sequence (P12392 whole entry): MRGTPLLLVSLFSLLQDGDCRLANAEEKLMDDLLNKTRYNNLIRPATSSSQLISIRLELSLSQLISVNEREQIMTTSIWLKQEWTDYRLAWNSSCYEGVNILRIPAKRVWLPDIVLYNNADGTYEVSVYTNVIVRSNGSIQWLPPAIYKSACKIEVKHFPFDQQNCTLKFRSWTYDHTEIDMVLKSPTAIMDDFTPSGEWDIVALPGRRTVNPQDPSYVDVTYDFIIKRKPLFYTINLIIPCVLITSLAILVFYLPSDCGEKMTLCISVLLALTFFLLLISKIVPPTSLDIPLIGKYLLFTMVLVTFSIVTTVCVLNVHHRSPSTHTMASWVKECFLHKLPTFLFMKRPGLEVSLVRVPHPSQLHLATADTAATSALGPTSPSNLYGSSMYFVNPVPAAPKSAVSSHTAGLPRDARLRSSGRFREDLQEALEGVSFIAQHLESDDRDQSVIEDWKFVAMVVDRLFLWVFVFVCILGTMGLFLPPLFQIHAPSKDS
Description: Displacement of [3H]epibatidine from rat recombinant alpha3beta4 nAChR expressed in HEK293 cells after 4 hrs by scintillation counting analysis

[3] = biological target: Neuronal acetylcholine receptor; alpha4/beta4 (Rattus norvegicus, UniProt P09483+P12392); experiment: biochemical
Sequence of Neuronal acetylcholine receptor; alpha4/beta4 (P09483 whole entry): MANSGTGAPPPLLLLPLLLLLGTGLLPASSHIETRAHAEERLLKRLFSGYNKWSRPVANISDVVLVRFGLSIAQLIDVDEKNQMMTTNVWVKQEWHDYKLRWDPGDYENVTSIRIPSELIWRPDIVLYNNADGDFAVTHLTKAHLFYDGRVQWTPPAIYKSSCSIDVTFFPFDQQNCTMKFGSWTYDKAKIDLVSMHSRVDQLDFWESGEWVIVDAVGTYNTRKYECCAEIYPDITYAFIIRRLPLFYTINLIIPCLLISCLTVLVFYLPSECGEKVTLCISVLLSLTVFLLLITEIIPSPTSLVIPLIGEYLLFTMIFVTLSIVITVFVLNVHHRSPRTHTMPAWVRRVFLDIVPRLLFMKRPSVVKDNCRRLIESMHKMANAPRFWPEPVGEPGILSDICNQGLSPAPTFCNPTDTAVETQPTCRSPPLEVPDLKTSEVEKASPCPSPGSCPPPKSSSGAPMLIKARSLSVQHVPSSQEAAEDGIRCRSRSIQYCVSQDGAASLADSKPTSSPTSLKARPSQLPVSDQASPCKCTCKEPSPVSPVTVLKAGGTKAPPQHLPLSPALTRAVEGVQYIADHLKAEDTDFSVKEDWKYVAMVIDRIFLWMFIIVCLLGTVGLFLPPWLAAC
Sequence of Neuronal acetylcholine receptor; alpha4/beta4 (P12392 whole entry): as the sequence (P12392 whole entry) above
Description: Displacement of [3H]epibatidine from rat recombinant alpha4beta4 nAChR expressed in HEK293 cells after 4 hrs by scintillation counting analysis

[4] = biological target: T1, Neuronal acetylcholine receptor; alpha3/beta4
Description: Agonist activity at rat alpha3beta4 nAChR expressed in HEK293 cells after 30 mins by FLIPR membrane potential blue assay

[5] = biological target: T2, Neuronal acetylcholine receptor; alpha4/beta2 (Homo sapiens, UniProt P17787+P43681)
T2 sequence (P17787 whole entry): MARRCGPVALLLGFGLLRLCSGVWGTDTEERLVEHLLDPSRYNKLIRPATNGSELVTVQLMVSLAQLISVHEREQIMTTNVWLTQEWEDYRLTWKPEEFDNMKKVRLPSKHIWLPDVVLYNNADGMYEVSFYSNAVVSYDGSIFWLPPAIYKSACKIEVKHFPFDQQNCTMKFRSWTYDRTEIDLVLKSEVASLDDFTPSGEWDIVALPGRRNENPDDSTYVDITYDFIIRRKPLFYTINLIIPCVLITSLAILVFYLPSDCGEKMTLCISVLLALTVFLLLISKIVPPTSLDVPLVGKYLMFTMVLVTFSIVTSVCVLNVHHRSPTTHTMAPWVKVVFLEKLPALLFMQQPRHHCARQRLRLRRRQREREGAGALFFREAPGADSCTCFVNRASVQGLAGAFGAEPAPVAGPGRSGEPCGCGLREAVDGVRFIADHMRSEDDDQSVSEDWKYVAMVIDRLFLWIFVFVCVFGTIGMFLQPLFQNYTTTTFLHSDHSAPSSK
T2 sequence (P43681 whole entry): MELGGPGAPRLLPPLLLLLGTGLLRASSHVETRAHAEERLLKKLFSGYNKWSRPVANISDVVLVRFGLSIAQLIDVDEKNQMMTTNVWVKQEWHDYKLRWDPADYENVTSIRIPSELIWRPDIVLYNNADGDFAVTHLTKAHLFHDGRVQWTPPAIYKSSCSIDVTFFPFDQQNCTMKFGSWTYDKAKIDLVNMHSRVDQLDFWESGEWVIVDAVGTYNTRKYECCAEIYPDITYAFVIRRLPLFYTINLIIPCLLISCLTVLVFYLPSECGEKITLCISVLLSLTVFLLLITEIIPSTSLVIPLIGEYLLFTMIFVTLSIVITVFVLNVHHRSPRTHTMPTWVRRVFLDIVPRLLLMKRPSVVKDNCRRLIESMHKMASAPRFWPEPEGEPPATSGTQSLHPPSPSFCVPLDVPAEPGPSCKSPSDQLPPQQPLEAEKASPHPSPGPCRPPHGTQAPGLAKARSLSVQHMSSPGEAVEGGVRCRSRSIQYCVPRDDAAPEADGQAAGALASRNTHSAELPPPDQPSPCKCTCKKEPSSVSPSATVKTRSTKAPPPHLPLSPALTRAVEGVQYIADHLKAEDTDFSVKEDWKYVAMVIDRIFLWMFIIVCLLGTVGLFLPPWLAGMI
Description: Partial agonist activity at human 2:3 alpha4beta2 nAChR expressed in Xenopus laevis oocytes after 1 min by two electrode voltage clamp technique

[6] = biological target: Acetylcholine-binding protein (Lymnaea stagnalis, UniProt P58154); conditions: hek293
Sequence of Acetylcholine-binding protein (P58154 20-229 limits assumed): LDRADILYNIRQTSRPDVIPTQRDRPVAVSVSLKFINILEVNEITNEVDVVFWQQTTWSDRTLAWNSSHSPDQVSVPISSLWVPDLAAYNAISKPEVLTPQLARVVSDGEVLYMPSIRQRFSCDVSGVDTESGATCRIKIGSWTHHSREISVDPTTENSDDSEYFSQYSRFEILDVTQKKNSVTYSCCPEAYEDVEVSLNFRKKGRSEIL
Description: Displacement of [3H]epibatidine from Lymnaea stagnalis AChBP linked to ion channel portion of 5-HT3A receptor expressed in HEK293 cells after 4 hrs by scintillation counting analysis

[7] = biological target: T2, Neuronal acetylcholine receptor; alpha4/beta2; remark: listed apart in the source
Description: Agonist activity at human 3:2 alpha4beta2 nAChR expressed in Xenopus laevis oocytes after 1 min by two electrode voltage clamp technique

[8] = biological target: Neuronal acetylcholine receptor subunit alpha-7 (Rattus norvegicus, UniProt Q05941); conditions: tsa-201
Sequence of Neuronal acetylcholine receptor subunit alpha-7 (Q05941 23-502 limits assumed): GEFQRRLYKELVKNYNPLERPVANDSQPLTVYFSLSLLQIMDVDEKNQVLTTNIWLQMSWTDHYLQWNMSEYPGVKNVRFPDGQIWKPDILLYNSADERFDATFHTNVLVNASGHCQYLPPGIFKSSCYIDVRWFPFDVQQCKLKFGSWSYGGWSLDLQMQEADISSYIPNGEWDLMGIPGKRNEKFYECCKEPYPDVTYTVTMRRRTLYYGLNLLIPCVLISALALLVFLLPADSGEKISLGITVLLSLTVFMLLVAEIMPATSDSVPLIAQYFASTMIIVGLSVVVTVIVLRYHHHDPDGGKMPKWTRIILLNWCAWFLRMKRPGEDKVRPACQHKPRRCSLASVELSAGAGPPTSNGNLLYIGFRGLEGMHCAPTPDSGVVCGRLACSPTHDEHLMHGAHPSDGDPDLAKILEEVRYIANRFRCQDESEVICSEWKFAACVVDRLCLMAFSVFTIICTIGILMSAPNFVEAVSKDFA
Description: Displacement of [3H]MLA from rat nAChR alpha7 linked to ion channel portion of 5-HT3A receptor expressed in human tsA-201 cells after 2.5 hrs by scintillation counting analysis

[9] = biological target: Neuronal acetylcholine receptor; alpha3/beta4 (Rattus norvegicus) (UniProt P04757+P12392); experiment: Modulation of rat alpha3beta4 nAChR expressed in HEK293 cells up to 1000 uM after 30 mins by FLIPR membrane potential blue assay; format: cell-based

Sequence of Neuronal acetylcholine receptor; alpha4/beta2 (Rattus norvegicus, UniProt P09483+P12390) (P09483 whole entry): as the sequence (P09483 whole entry) above
Sequence of Neuronal acetylcholine receptor; alpha4/beta2 (Rattus norvegicus, UniProt P09483+P12390) (P12390 whole entry): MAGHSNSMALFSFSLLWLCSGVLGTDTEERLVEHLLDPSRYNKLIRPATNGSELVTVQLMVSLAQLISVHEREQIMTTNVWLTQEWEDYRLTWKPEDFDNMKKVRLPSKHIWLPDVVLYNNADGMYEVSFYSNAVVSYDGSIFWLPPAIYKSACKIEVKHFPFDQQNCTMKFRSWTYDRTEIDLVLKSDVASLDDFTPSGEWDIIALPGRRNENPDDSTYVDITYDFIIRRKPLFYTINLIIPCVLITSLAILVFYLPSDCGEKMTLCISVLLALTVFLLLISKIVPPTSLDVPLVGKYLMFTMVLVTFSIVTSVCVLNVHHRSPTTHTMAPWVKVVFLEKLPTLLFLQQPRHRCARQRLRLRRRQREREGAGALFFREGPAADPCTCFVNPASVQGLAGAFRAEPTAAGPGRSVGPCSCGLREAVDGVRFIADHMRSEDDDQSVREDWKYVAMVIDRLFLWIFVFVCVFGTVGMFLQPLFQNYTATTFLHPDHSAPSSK

| SMILES | Ki [1] | Ki [2] | Ki [3] | EC50 [4] | EC50 [5] | Ki [6] | pKi [6] | EC50 [7] | Ki [8] | pKi [8] | Activity [9] |
| --- | --- | --- | --- | --- | --- | --- | --- | --- | --- | --- | --- |
| C[C@H](CCOc1nccs1)N(C)C | 13 nM | 4.7 µM | 1.8 µM |  |  |  |  |  |  |  |  |
| C[C@H](CCOc1cccnc1)N(C)C | 30 nM | 4.9 µM | 8.3 µM |  |  |  |  |  |  |  |  |
| C[C@H](CCOC(=O)N(C)C)N(C)C | 20 nM | 0.42 µM | 0.15 µM | 11 µM | 0.72 µM | 79 nM | 7.1 | 15.8 µM and 14 µM | > 1 mM | < 3 |  |
| Cc1cn(C)c(OCC[C@@H](C)N(C)C)n1 | 280 nM | 24 µM | 50 µM |  | 19 µM | 1500 nM | 5.82 | 34 µM | > 1 mM | < 3 | inactive |
| C[C@H](CCOc1cnccn1)N(C)C | 240 nM | 42 µM | 8.3 µM |  |  |  |  |  |  |  |  |
| C[C@H](CCOn1cccn1)N(C)C | 18 nM | 8.1 µM | 11 µM |  |  |  |  |  |  |  |  |
| C[C@H](CCOc1nc(Br)cn1C)N(C)C | 120 nM | 300 µM | 50 µM |  |  |  |  |  | 1 mM | 3 |  |
